In general, melting point refers to the temperature, or range, at which the solid turns liquid.

In one series the test system is atrium. The experiment in a line: Effects on the atrial effective refractory period (S1-S2 extrastimulus technique during bilateral vagal nerve stimulation) in anesthetized beagles. The series is classed as in vivo. The note with it: intravenous, from 5 minutes after administration, basic cycle length 300 msec. The protocol: Effects on the Effective Refractory Period
Beagles were anesthetized with pentobarbital sodium and thoracotomy was done along the median line under a respirator and the incision was made on the pericardium to expose the heart. An electrocardiogram (ECG) was recorded using bipolar electrodes attached to the surface of the right atrial free wall, right atrial auricle, and right ventricular free wall. The vagal nerves were stimulated using an electrostimulation device with Nichrome wires inserted into the vagal nerves in the neck bilaterally. The conditions for electrostimulation to the vagal nerves were set such that the RR intervals on ECG were prolonged by about 100 msec compared with those before the stimulation was started.
Atrial and ventricular effective refractory periods were determined by S1-S2 extrastimulus technique at basic cycle length of 300 msec during bilateral vagal nerve stimulation, using programmable electric stimulator. A train of 10 basic stimuli (S1) was followed by a premature extrastimulus (S2) at 2 times diastolic threshold.
For evaluation of drug effects, the atrial and ventricular effective refractory periods were determined before drug administration, then respective compound was administrated intravenously at the dose of 0.3 mg/kg or 0.6 mg/kg, and the atrial and ventricular effective refractory periods were determined from 5 minutes after the administration.
The results were shown as the prolongation time on the atrial and ventricular effective refractory periods, i.e. [effective refractory period after drug administration]−[effective refractory period before drug administration] (msec).

For `Cc1cc(Cl)nc2cc3c(cc12)OC(C)(C)[C@H](O)[C@H]3NCCC1CCCCC1.Cl` (relative stereo) [Synthesis Example 53, (3R*,4S*)-7-chloro-2,2,9-trimethyl-4-[(2-cyclohexylethyl)amino]-3,4-dihydro-2H-pyrano[2,3-g]quinolin-3-ol hydrochloride], the melting point is 294 to 295 °C (dec.). The “Atrial Refractory Period (prolongation time on the atrial effective refractory period)” value (shortened to “Atrial Refractory Period”) with atrium (0.3 mg/kg) is 30 ms.

For the compound `CC1(C)Oc2cc3nccnc3cc2[C@H](NCCC2CCCCC2)[C@H]1O.Cl` (relative stereo) [Synthesis Example 69, (3R*,4S*)-4-[(2-cyclohexylethyl)amino)]-2,2-dimethyl-3,4-dihydro-2H-pyrano[2,3-g]quinoxalin-3-ol hydrochloride], the melting point was 258 to 259 °C (dec.). For the same compound, the “Atrial Refractory Period” value in the series on atrium (0.3 mg/kg) came to 37 ms.

Consider `Cc1cc(Cl)nc2cc3c(cc12)OC(C)(C)C(O)C3NCCc1ccccc1.O=C(O)/C=C\C(=O)O` (racemic) [Synthesis Example 6, (±)-trans-7-Chloro-2,2,9-trimethyl-4-[(2-phenylethyl)amino]-3,4-dihydro-2H-pyrano[2,3-g]quinolin-3-ol 1 maleate], for which the melting point is 221 to 226 °C (dec.). Also, the “Atrial Refractory Period” value in the series on atrium (0.6 mg/kg) was 20 ms.

In the case of `Cc1cc(C)c2cc3c(cc2n1)C(NCCc1ccccc1)C(O)C(C)(C)O3` (racemic) [Synthesis Example 2, (±)-trans-2,2,7,9-Tetramethyl-4-[(2-phenylethyl)amino]-3,4-dihydro-2H-pyrano[2,3-g]quinolin-3-ol], the melting point fell in the range of 144 to 147 °C. Also, the “Atrial Refractory Period” value in the series on atrium (0.6 mg/kg) turned out to be 21 ms.

For `CC1(C)Oc2cc3c(cc2C(NCCc2ccccc2)C1O)N(Cc1ccccc1)C(=O)C3` (stereo not shown) [Synthesis Example 90, 1-Benzyl-7-hydroxy-6,6-dimethyl-8-phenetylamino-3,6,7,8-tetrahydro-1H-pyrano[2,3-f]indole-2-one], the melting point was 195 °C (dec.).

Turning to `CC1(C)Oc2ccc3nc(Cl)ccc3c2[C@@H](NCCc2ccccc2)[C@@H]1O` (racemic) [Synthesis Example 9, (±)-trans-8-Chloro-3,3-dimethyl-1-[(2-phenylethyl)amino]-2,3-dihydro-1H-pyrano[3,2-f]quinolin-2-ol], the melting point lay within 141 to 143 °C.

Take `CCCCCN[C@H]1c2cc3nccnc3cc2OC(C)(C)[C@@H]1O.Cl` (relative stereo) [Synthesis Example 63, (3R*,4S*)-2,2-dimethyl-4-pentylamino-3,4-dihydro-2H-pyrano[2,3-g]quinoxalin-3-ol hydrochloride]: the melting point was 209 to 212 °C (dec.). Moreover, the “Atrial Refractory Period” value with atrium (0.3 mg/kg) turned out to be 23 ms.

Take `Cc1cc(O)nc2cc3c(cc12)OC(C)(C)[C@H](O)[C@H]3NCCc1ccccc1.O=C(O)/C=C\C(=O)O` (relative stereo) [Synthesis Example 85, (3R*,4S*)-2,2,9-trimethyl-4-[(2-phenylethyl)amino)]-3,4-dihydro-2H-pyrano[2,3-g]quinolin-3,7-diol 3/2 maleate]: the melting point was 184 to 188 °C (dec.).

Compound `CC1(C)Oc2ccc3ncccc3c2C(NCCc2ccccc2)C1O` (racemic) [Synthesis Example 8, (±)-trans-3,3-Dimethyl-1-[(2-phenylethyl)amino]-2,3-dihydro-1H-pyrano[3,2-f]quinolin-2-ol] had a melting point of 180 to 182 °C. The “Atrial Refractory Period” value in the series on atrium (0.6 mg/kg) came out at 23 ms.

Regarding `Cc1cc(Cl)nc2cc3c(cc12)OC(C)(C)[C@@H](O)[C@@H]3NCCc1ccccc1.O=C(O)/C=C\C(=O)O` (relative stereo) [Synthesis Example 50, (3S*,4R*)-7-chloro-2,2,9-trimethyl-4-[(2-phenylethyl)amino]-3,4-dihydro-2H-pyrano[2,3-g]quinolin-3-ol 1 maleate], the melting point was 240 to 242 °C.

`Cc1cc(C)c2cc3c(cc2n1)[C@@H](NCCc1ccccc1)[C@H](O)C(C)(C)O3.O=C(O)/C=C\C(=O)O` (relative stereo) [Synthesis Example 51, (3R*,4R*)-2,2,7,9-tetramethyl-4-[(2-phenethyl)amino]-3,4-dihydro-2H-pyrano[2,3-g]quinolin-3-ol 1 maleate]: the melting point is 215 to 216 °C (dec.).

`CC1(C)Oc2ccc3nc(C#N)ccc3c2[C@@H](NCCc2ccccc2)[C@@H]1O` (racemic) [Synthesis Example 10, (±)-trans-2-Hydroxy-3,3-dimethyl-1-[(2-phenylethyl)amino]-2,3-dihydro-1H-pyrano[3,2-f]quinoline-8-carbonitrile] gave a melting point of 93 to 96 °C.

On to `Cc1cnc2cc3c(cc2n1)OC(C)(C)[C@H](O)[C@H]3NCCc1ccccc1.O=C(O)/C=C\C(=O)O` (relative stereo) [Synthesis Example 68, (3R*,4S*)-2,2,8-trimethyl-4-[(2-phenylethyl)amino]-3,4-dihydro-2H-pyrano[2,3-g]quinoxalin-3-ol 1 maleate], for which the melting point is 189 to 192 °C (dec.).

On to `Cc1cc(C#N)nc2cc3c(cc12)OC(C)(C)C(O)C3NCCc1ccccc1.O=C(O)/C=C\C(=O)O` (racemic) [Synthesis Example 7, (±)-trans-3-Hydroxy-2,2,9-trimethyl-4-[(2-phenylethyl)amino]-3,4-dihydro-2H-pyrano[2,3-g]quinoline-7-carbonitrile 1 maleate], for which the melting point is 218 to 220 °C (dec.). Also, the “Atrial Refractory Period” value in the series with atrium (0.6 mg/kg) is 25 ms.

Compound `Cc1cc(CN)nc2cc3c(cc12)OC(C)(C)[C@H](O)[C@H]3NCCc1ccccc1.O=C(O)/C=C\C(=O)O` (relative stereo) [Synthesis Example 83, (3R*,4S*)-7-aminomethyl-2,2,9-trimethyl-4-[(2-phenylethyl)amino]-3,4-dihydro-2H-pyrano[2,3-g]quinolin-3-ol 2 maleate] returned a melting point of 136 to 140 °C.

For the compound `CC1(C)Oc2cc3c(CO)ccnc3cc2[C@H](NCCc2ccccc2)[C@H]1O.O=C(O)/C=C\C(=O)O` (relative stereo) [Synthesis Example 84, (3R*,4S*)-9-hydroxymethyl-2,2-dimethyl-4-[(2-phenylethyl)amino)]-3,4-dihydro-2H-pyrano[2,3-g]quinolin-3-ol 1 maleate], the melting point is 163 to 169 °C (dec.).

With `Cc1cnc2cc3c(cc2c1C)OC(C)(C)C(O)C3NCCc1ccccc1.O=C(O)/C=C\C(=O)O` (racemic) [Synthesis Example 3, (±)-trans-2,2,8,9-Tetramethyl-4-[(2-phenylethyl)amino]-3,4-dihydro-2H-pyrano[2,3-g]quinolin-3-ol 1 maleate], the melting point fell in the range of 199 to 203 °C.

Turning to `CCCCCN[C@H]1c2cc3c(cc2OC(C)(C)[C@@H]1O)c(C)cc(Cl)[n+]3[O-].Cl` (relative stereo), the melting point was 226 to 230 °C (dec.).

In the case of `Cc1cc(CO)nc2cc3c(cc12)OC(C)(C)[C@H](O)[C@H]3NCCc1ccc(F)cc1` (relative stereo) [Synthesis Example 76, (3R*,4S*)-4-{[2-(4-fluorophenyl)ethyl]amino}-7-hydroxymethyl-2,2,9-trimethyl-3,4-dihydro-2H-pyrano[2,3-g]quinolin-3-ol], the melting point fell in the range of 147 to 152 °C.

For `Cc1cc(Cl)[n+]([O-])c2cc3c(cc12)OC(C)(C)[C@H](O)[C@H]3NCCc1ccccc1.Cl` (relative stereo), the melting point is 174 to 179 °C (dec.).

Compound `CC1(C)Oc2ccc3ncccc3c2C(NCCc2ccccc2)C1O` (stereo not drawn) [Synthesis Example 17, (1R*,2R*)-3,3-dimethyl-1-[(2-phenylethyl)amino]-2,3-dihydro-1H-pyrano[3,2-f]quinolin-2-ol] returned a melting point of 170 to 171 °C.

Turning to `CC1(C)Oc2cc3cccnc3cc2[C@H](NCCc2ccccc2)[C@H]1O.O=C(O)/C=C\C(=O)O` (relative stereo) [Synthesis Example 77, (3R*,4S*)-2,2-dimethyl-4-[(2-phenylethyl)amino]-3,4-dihydro-2H-pyrano[2,3-g]quinolin-3-ol 1 maleate], the melting point was 187 to 192 °C (dec.). The “Atrial Refractory Period” value with atrium (0.3 mg/kg) was 25 ms.

With `Cc1cc(Cl)[n+]([O-])c2cc3c(cc12)OC(C)(C)[C@H](O)[C@H]3NCCc1ccc(F)cc1.Cl` (relative stereo), the melting point was 193 to 198 °C (dec.).

These data come from patent US7964623B2, “Tricyclic benzopyrane compound” (Nissan Chemical Industries Ltd., priority 2004, dated 2011).
